Experimental data as given in patent US10723707B2, “Heterocyclic substituted 2-amino quinazoline derivatives for the treatment of viral infections” (JANSSEN SCIENCES IRELAND UNLIMITED COMPANY, priority 2012, dated 2020).

Assays:
Format in all cases: cell-based
human TLR7 = target: T1, human TLR7 (Homo sapiens, UniProt Q9NYK1); experiment: TLR7 cellular NFκB-luc reporter assay in transiently transfected HEK293 cells; settings: lowest effective concentration, 6 hours incubation
T1 construct: expressed in transfected cells; host or cells: HEK293
T1 sequence (Q9NYK1 27-1049): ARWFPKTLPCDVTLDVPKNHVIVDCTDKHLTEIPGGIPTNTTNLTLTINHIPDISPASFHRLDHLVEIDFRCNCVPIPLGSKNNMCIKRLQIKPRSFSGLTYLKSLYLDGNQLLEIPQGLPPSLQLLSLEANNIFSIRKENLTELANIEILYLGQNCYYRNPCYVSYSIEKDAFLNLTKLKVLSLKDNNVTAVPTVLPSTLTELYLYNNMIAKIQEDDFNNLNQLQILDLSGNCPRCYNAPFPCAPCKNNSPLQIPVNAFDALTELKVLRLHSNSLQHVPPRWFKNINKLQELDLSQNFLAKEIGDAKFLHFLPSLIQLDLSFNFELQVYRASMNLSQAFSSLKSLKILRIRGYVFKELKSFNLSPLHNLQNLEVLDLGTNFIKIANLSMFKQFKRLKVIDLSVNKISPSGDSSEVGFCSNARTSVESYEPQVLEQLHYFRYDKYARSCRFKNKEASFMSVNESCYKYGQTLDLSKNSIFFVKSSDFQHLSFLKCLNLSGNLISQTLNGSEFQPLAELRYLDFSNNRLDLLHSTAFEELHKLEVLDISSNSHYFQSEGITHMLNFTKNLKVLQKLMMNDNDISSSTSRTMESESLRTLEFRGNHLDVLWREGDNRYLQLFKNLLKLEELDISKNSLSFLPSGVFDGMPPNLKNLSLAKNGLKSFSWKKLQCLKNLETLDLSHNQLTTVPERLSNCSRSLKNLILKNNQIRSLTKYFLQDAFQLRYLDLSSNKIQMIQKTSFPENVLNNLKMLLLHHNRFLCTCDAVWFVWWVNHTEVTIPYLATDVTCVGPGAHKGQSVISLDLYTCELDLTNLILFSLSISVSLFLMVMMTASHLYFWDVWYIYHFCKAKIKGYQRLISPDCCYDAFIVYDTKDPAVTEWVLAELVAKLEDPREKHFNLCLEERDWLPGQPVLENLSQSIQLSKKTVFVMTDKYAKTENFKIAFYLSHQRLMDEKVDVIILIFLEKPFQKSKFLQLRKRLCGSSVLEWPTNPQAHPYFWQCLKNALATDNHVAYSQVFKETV
Procedure: (§1) The ability of compounds to activate human TLR7 and/or TLR8 was assessed in a cellular reporter assay using HEK293 cells transiently transfected with a TLR7 or TLR8 expression vector and NFκB-luc reporter construct.
(§2) Briefly, HEK293 cells were grown in culture medium (DMEM supplemented with 10% FCS and 2 mM Glutamine). For transfection of cells in 15 cm dishes, cells were detached with Trypsin-EDTA, transfected with a mix of CMV-TLR7 or TLR8 plasmid (1700 ng), NFκB-luc plasmid (850 ng) and a transfection reagent and incubated for 48 h at 37° C. in a humidified 5% CO2 atmosphere. Transfected cells were then washed in PBS, detached with Trypsin-EDTA and resuspended in medium to a density of 1.25×10^5 cells/mL. Forty microliters of cells were then dispensed into each well in 384-well plates, where 200 nL of compound in 100% DMSO was already present. Following 6 hours incubation at 37° C., 5% CO2, the luciferase activity was determined by adding 15 μL of Steady Lite Plus substrate (Perkin Elmer) to each well and readout performed on a ViewLux ultraHTS microplate imager (Perkin Elmer). Dose response curves were generated from measurements performed in quadruplicates. Lowest effective concentrations (LEC) values, defined as the concentration that induces an effect which is at least two fold above the standard deviation of the assay, were determined for each compound.

[1] = tested on: interferon-stimulated responsive elements (ISRE); experiment: Activation of ISRE promoter elements in HEK-ISREluc cells by conditioned media from PBMC; settings: Homo sapiens, compound concentration applied to PBMCs, supernatant transferred to HEK-ISREluc cells, 24 hours, read-out: HEK-ISRE luc (LEC)
Procedure: The potential of compounds to induce IFN-I was also evaluated by measuring the activation of interferon-stimulated responsive elements (ISRE) by conditioned media from PBMC. The ISRE element of sequence GAAACTGAAACT (SEQ ID: 1) is highly responsive to the STAT1-STAT2-IRF9 transcription factor, activated upon binding of IFN-I to their receptor IFNAR (Clontech, PT3372-5W). The plasmid pISRE-Luc from Clontech (ref. 631913) contains 5 copies of this ISRE element, followed by the firefly luciferase ORF. A HEK293 cell line stably transfected with pISRE-Luc (HEK-ISREluc) was established to profile the conditioned PBMC cell culture media.
Briefly, PBMCs were prepared from buffy coats of at least two donors using a standard Ficoll centrifugation protocol. Isolated PBMCs were resuspended in RPMI medium supplemented with 10% human AB serum and 2×10^5 cells/well were dispensed into 384-well plates containing compounds (70 μL total volume). After overnight incubation, 10 μL of supernatant was transferred to 384-well plates containing 5×10^3 HEK-ISREluc cells/well in 30 μL (plated the day before). Following 24 hours of incubation, activation of the ISRE elements was measured by assaying luciferase activity using 40 μL/well Steady Lite Plus substrate (Perkin Elmer) and measured with ViewLux ultraHTS microplate imager (Perkin Elmer). The stimulating activity of each compound on the HEK-ISREluc cells was reported as LEC value, defined as the compound concentration applied to the PBMCs resulting in a luciferase activity at least two fold above the standard deviation of the assay. The LEC in turn indicates the degree of ISRE activation on transfer of a defined amount of PBMC culture medium. Recombinant interferon α-2a (Roferon-A) was used as a standard control compound.

human TLR8 = target: T2, human TLR8 (Homo sapiens, UniProt Q9NR97); experiment: TLR8 cellular NFκB-luc reporter assay in transiently transfected HEK293 cells; settings: lowest effective concentration, 6 hours incubation
T2 construct: expressed in transfected cells; host or cells: HEK293
T2 sequence (Q9NR97 27-1041): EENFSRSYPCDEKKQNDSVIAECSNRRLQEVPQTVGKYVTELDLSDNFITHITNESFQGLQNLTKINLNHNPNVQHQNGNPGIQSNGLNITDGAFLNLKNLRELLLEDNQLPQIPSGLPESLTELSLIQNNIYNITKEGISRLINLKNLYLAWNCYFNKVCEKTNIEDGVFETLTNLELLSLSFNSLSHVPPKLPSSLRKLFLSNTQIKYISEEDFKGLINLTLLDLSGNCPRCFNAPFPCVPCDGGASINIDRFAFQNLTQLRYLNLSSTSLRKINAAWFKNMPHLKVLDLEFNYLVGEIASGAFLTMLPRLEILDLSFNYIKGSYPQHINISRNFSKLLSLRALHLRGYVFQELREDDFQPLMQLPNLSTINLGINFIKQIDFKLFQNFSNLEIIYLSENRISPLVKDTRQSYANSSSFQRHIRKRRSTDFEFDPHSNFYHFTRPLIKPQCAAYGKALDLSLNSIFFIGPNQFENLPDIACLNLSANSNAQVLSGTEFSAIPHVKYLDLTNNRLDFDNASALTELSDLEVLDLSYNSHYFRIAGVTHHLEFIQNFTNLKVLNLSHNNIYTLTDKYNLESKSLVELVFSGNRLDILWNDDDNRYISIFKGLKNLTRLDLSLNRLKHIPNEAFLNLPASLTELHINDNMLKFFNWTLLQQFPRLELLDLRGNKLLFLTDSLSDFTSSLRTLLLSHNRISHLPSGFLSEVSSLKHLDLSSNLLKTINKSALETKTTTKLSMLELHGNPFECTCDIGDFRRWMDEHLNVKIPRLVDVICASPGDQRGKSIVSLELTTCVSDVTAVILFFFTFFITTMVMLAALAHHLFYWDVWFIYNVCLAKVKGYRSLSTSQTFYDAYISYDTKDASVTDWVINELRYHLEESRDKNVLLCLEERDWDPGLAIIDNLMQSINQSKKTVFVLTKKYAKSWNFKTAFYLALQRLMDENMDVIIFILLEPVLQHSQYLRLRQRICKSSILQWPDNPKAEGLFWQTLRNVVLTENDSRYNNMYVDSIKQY
Procedure: as §1, §2

Human TLR 7 (LEC) (human TLR7) [µM] | Human TLR 8 (LEC) (human TLR8) [µM] | SMILES | minimal effective concentration [1] [µM]
0.65 | >25 | Cc1cc(CNc2nc(N)nc3c(F)cccc23)no1 [Compound 14] | 0.13
0.76 | >25 | COc1cccc2nc(N)nc(N[C@H](c3ccccn3)C(F)(F)F)c12 (single isomer, unassigned) [Compound 3] | 0.47
6.67 | >25 | CC(Nc1nc(N)nc2cc(C(=O)N(C)C)ccc12)c1ccccn1 (stereo not shown) [Compound 23] | 1.62
6.1 | 8.85 | CCn1ncnc1[C@H](C)Nc1nc(N)nc2cccc(OC)c12 (single isomer, unassigned) [Compound 21] | 0.54
0.047 | 1.94 | COc1cccc2nc(N)nc(NCc3cc(C)on3)c12 [Compound 12] | 0.036
0.83 | 5.51 | Nc1nc(N[C@@H](CO)[C@@H](O)c2ccccc2)c2ccccc2n1 [Compound 17] | 0.16
0.46 | 5.22 | Cc1cc(CNc2nc(N)nc3cc(F)ccc23)no1 [Compound 13] | 0.12
1.46 | >25 | COc1cccc2nc(N)nc(N[C@H](C)c3cccc(C)n3)c12 (single isomer, unassigned) [Compound 20] | 0.62
3.75 | >25 | COc1ccc2c(N[C@H](C)c3ccccn3)nc(N)nc2c1 (single isomer, unassigned) [Compound 6] | 0.64
1.95 | 6.62 | CCc1noc([C@@H](C)Nc2nc(N)nc3cccc(OC)c23)n1 (single isomer, unassigned) [Compound 25] | 0.49
0.72 | >25 | C[C@@H](Nc1nc(N)nc2ccccc12)c1ccccn1 (single isomer, unassigned) [Compound 1] | 0.61
0.63 | 9.0 | Cc1cc(CNc2nc(N)nc3cccc(CO)c23)no1 [Compound 30] | 0.14
2.24 | >25 | C[C@@H](Nc1nc(N)nc2cc(C(=O)N3CCCC3)ccc12)c1ccccn1 (single isomer, unassigned) [Compound 28] | 1.57
14.7 | >25 | CNC(=O)c1ccc2c(NC(C)c3ccccn3)nc(N)nc2c1 (stereo not shown) [Compound 22] | 2.2
2.44 | 9.14 | COc1cccc2nc(N)nc(N[C@H](C)c3cnn(C)c3)c12 (single isomer, unassigned) [Compound 16] | 0.55
0.82 | 16.4 | C[C@@H](Nc1nc(N)nc2cc(Cl)ccc12)c1ccccn1 (single isomer, unassigned) [Compound 7] | 0.38
14.3 | 11.0 | CC(Nc1nc(N)nc2cc(C(=O)N(C)C(C)C)ccc12)c1ccccn1 (stereo not shown) [Compound 24] | 1.75
4.94 | – | COC(=O)c1ccc2c(N[C@H](C)c3ccccn3)nc(N)nc2c1 (single isomer, unassigned) [Compound 8] | 2.11
0.74 | >25 | COc1ccc(F)c2nc(N)nc(NCc3cc(C)on3)c12 [Compound 31] | 0.46
8.24 | >25 | CNC(=O)c1ccc2c(N[C@H](C)c3ccccn3)nc(N)nc2c1 (single isomer, unassigned) [Compound 27] | 5.04
0.11 | 1.74 | Cc1cc(CNc2nc(N)nc3cccc(C)c23)no1 [Compound 19] | 0.051
0.42 | 12.3 | COc1cccc2nc(N)nc(N[C@H](C)c3nccs3)c12 (single isomer, unassigned) [Compound 10] | 0.11
0.082 | 8.15 | COCCOc1cccc2nc(N)nc(NCc3cc(C)on3)c12 [Compound 29] | –
